From ChEMBL document CHEMBL4038283, “Synthesis of conformationally restricted 1,3-dioxanes to analyze the bioactive conformation of 1,3-dioxane-based σ1 and PCP receptor antagonists” (Bioorg Med Chem, 2017)

What was measured:
[1] = target: Sigma non-opioid intracellular receptor 1 (Cavia porcellus, UniProt Q60492); assay: Displacement of [3H]-(+)-pentazocine from sigma1 receptor in guinea pig brain cortex membrane incubated for 120 mins measured for 5 mins by scintillation counting method; assay type: cell membranes
Sigma non-opioid intracellular receptor 1, sequence (Q60492 whole entry): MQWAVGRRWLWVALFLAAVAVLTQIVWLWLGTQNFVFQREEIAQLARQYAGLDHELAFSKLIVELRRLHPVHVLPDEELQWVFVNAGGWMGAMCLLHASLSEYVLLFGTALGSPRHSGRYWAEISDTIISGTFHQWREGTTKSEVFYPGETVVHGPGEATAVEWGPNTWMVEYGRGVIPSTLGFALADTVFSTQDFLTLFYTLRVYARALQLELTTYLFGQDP

[2] = target: T1, Sigma intracellular receptor 2 (Rattus norvegicus, UniProt Q5U3Y7); assay: Displacement of [3H]-di-o-tolylguanidine from sigma2 receptor in rat liver membrane incubated for 120 mins measured for 5 mins by scintillation counting method; assay type: cell membranes
T1 sequence (Q5U3Y7 whole entry): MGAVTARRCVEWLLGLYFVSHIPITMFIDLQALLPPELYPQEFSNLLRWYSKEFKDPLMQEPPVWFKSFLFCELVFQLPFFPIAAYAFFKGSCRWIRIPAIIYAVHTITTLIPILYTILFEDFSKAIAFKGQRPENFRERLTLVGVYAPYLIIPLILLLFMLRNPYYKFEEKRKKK

[3] = Displacement of [3H]-(+)-MK-801 from NMDA PCP binding site in pig brain cortex membrane incubated for 120 mins measured for 5 mins by scintillation counting method; assay type: cell membranes, Sus scrofa

| Ki [1] [nM] | Ki [2] [nM] | Ki [3] [nM] | Structure (SMILES) |
| --- | --- | --- | --- |
| > 1000 | > 1000 | > 1000 | CN(C)CCC1CC2OC(Cc3ccccc32)O1 (racemic) |
| 30 | > 1000 | > 1000 | c1ccc(CNCCC2CC3OC(Cc4ccccc43)O2)cc1 (racemic; 21a) |
| 5.9 | 153 |  | c1ccc(CNCCC2CC3OC(Cc4ccccc43)O2)cc1 (racemic; 21b) |
| 1400 | > 1000 | > 1000 | c1ccc(CN(CCC2CC3OC(Cc4ccccc43)O2)Cc2ccccc2)cc1 (racemic; 22a) |
| 782 | > 1000 |  | c1ccc(CN(CCC2CC3OC(Cc4ccccc43)O2)Cc2ccccc2)cc1 (racemic; 22b) |

| Structure (SMILES) | Ki [1] [nM] | Ki [2] [nM] | Ki [3] [nM] |
| --- | --- | --- | --- |
| NCCC1CC2OC(Cc3ccccc32)O1 (mixture of isomers) | > 1000 | > 1000 | > 1000 |
| NCCC1CC2OC(Cc3ccccc32)O1 (racemic) | > 1000 | > 1000 |  |
